Where “and” joins values, the source holds several entries; their conditions need not be identical. Equal values may be shown once.
Test system: 5-α-reductase
Assay: in vivo inhibiting activity of 5-α-reductase: plasmatic DHT concentration after oral administration
Design: species or system Sprague-Dawley rats
Experimental: Determination in vivo of the inhibiting activity of 5-α-reductase of an extract of Boehmeria nippononivea.
For the in-vivo study of the inhibition of 5-α-reductase, Sprague-Dawley (Charles River Italia) male adult rats were used having a body weight of 200-250 g.
The animals were stalled under standard conditions: at a temperature of 22/23° C., with 65% relative humidity, by exposing them to light cycles of 12 h light/12 h darkness.
A standard diet in pellets (standard diet, Charles River) was administered to the rats, together with water ad libitum.
Samples were taken from the rear-orbital plexus, immediately before the pharmacological treatment (T0) and then at 3, 6 and 8 hours after administration.
The administration of the substance being tested was effected orally.
Furthermore, contemporarily with each sampling of the treated animals, samples were also taken from non-treated animals to determine the basal analyte level.
Plasma obtained from the whole blood, treated with EDTA after centrifugation, was preserved at −20° C. until analysis.
The plasmatic concentrations of DHT (dihydrotestosterone) were determined by a commercial kit (DSL, Chematil, Angri, SA) after extraction of the samples.
All the samples of an experimental set were analyzed together to reduce the inter analytical variability.

## CC(C)(C)NC(=O)[C@H]1CC[C@H]2[C@@H]3CC[C@H]4NC(=O)C=C[C@]4(C)[C@H]3CC[C@]12C [Finasteride]
Finasteride 1 mg oral, 3 hrs
  plasmatic DHT concentration, individual animals: 298.09 and 505.28 and 300.00 and 569.62 and 404.63 and 530.00
Finasteride 1 mg oral, 3 hrs, n = 6
  plasmatic DHT concentration, average: 434.603
Finasteride 1 mg oral, 6 hrs
  plasmatic DHT concentration, individual animals: 404.13 and 565.00 and 379.59 and 592.06 and 148.51 and 420.07
Finasteride 1 mg oral, 6 hrs, n = 6
  plasmatic DHT concentration, average: 418.227
Finasteride 1 mg oral, 8 hrs
  plasmatic DHT concentration, individual animals: 706.70 and 140.06 and 503.90 and 530.07 and 173.11 and 110.00
Finasteride 1 mg oral, 8 hrs, n = 6
  plasmatic DHT concentration, average: 360.640
Finasteride 5 mg oral, 3 hrs
  plasmatic DHT concentration, individual animals: 217.10 and 618.58 and 151.18 and 640.97 and 924.20 and 569.38
Finasteride 5 mg oral, 3 hrs, n = 6
  plasmatic DHT concentration, average: 520.235
Finasteride 5 mg oral, 6 hrs
  plasmatic DHT concentration, individual animals: 205.21 and 103.62 and 54.35 and 60.67 and 49.67 and 128.25 and 176.92 and 81.23
Finasteride 5 mg oral, 6 hrs, n = 8
  plasmatic DHT concentration, average: 107.490
Finasteride 5 mg oral, 8 hrs
  plasmatic DHT concentration, individual animals: 201.56 and 108.76 and 745.40 and 576.60 and 250.90 and 300.12
Finasteride 5 mg oral, 8 hrs, n = 6
  plasmatic DHT concentration, average: 363.890
oral, 3, 6 and 8 hours after administration
  trend of the DHT concentration following administration: 8 hours after treatment, increases returning to the basal levels

Reference: patent publication US20070207228A1, “Composition for Regulating the Trophism of Hair Follicles and the Cutaneous Production of Sebum and Use Thereof in Androgenic Alopecia” (priority 2004, published 2007)
